Source: publication PMC6437697 (Journal of Medicinal Chemistry, 2019)

Key:
Test in all cases: KINOMEscan
Format in all cases: binding
Details in all cases: read-out: % control activity remaining
CAMK1 = target: T1, CAMK1 (Homo sapiens, UniProt Q14012)
T1 construct: purchased Eurofins DiscoverX KINOMEscan

CDK8 = target: T2, CDK8 (Homo sapiens, UniProt P49336)
T2 construct: purchased Eurofins DiscoverX KINOMEscan

CIT = target: T3, CIT (Homo sapiens, UniProt O14578)
T3 construct: purchased Eurofins DiscoverX KINOMEscan
T3 sequence (O14578 whole entry): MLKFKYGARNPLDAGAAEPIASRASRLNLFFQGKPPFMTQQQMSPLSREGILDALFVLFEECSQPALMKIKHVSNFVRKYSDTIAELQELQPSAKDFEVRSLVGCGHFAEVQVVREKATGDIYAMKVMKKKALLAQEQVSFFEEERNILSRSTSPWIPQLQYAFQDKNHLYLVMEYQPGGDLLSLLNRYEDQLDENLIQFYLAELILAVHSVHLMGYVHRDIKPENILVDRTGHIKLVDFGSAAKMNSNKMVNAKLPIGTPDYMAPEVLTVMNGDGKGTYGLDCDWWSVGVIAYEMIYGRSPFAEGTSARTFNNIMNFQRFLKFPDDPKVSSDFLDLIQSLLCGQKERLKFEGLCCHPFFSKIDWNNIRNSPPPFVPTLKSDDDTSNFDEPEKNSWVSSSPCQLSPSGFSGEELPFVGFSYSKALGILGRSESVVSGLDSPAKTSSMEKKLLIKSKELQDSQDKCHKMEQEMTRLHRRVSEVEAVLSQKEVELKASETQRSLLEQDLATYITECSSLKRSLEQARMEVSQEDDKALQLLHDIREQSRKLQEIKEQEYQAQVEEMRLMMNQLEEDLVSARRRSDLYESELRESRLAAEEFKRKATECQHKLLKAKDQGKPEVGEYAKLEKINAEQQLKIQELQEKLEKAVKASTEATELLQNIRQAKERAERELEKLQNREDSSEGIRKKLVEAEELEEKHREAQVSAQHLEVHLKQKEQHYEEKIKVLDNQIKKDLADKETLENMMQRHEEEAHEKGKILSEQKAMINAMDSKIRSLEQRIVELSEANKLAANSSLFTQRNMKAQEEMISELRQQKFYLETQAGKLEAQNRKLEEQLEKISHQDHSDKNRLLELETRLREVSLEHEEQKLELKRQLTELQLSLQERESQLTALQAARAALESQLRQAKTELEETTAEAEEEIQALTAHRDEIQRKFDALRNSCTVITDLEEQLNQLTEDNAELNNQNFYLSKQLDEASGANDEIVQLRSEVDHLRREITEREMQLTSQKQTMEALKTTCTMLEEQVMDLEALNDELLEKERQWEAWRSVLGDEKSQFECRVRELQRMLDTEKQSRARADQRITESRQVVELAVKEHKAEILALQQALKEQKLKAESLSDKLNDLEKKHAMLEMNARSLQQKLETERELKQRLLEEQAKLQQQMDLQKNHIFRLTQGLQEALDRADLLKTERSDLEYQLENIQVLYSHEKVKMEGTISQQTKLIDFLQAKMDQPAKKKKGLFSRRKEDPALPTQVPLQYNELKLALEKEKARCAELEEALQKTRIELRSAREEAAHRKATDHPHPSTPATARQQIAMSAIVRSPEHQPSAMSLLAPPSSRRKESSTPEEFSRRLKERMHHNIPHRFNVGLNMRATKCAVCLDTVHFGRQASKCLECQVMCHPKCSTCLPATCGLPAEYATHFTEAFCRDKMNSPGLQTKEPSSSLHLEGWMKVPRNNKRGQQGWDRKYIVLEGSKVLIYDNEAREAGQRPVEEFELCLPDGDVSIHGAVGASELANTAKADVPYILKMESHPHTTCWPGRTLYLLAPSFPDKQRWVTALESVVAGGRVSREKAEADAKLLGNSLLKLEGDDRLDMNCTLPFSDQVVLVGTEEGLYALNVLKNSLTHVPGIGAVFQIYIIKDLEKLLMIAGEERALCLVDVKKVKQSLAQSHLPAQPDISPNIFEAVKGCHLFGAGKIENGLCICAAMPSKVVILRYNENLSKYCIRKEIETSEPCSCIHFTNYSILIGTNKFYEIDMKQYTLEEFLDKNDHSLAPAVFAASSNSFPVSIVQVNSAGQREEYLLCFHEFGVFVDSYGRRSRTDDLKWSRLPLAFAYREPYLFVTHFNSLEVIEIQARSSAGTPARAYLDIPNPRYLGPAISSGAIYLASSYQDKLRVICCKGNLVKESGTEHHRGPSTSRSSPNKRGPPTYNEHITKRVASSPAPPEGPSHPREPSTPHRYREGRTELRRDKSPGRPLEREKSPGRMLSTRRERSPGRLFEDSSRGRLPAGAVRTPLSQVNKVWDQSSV

DRAK1 = target: T4, DRAK1 (Homo sapiens, UniProt Q9UEE5)
T4 construct: purchased Eurofins DiscoverX KINOMEscan
T4 sequence (Q9UEE5 1-414): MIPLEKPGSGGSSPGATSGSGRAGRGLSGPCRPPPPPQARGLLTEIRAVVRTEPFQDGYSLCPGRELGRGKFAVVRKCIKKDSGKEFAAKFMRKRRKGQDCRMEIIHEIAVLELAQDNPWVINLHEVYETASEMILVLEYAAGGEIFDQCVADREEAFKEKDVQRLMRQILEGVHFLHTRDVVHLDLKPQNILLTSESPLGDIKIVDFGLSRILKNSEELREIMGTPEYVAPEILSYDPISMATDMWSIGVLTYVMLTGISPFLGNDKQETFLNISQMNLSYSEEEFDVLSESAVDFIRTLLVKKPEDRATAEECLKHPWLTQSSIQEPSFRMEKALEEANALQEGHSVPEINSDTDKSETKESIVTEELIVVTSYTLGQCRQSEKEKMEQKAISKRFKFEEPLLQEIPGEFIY

EGFR(T790M) = target: T5, EGFR(T790M) (Homo sapiens, UniProt P00533, T790M)
T5 construct: purchased Eurofins DiscoverX KINOMEscan

ERK3 = target: T6, ERK3 (Homo sapiens, UniProt Q16659)
T6 construct: purchased Eurofins DiscoverX KINOMEscan
T6 sequence (Q16659 whole entry): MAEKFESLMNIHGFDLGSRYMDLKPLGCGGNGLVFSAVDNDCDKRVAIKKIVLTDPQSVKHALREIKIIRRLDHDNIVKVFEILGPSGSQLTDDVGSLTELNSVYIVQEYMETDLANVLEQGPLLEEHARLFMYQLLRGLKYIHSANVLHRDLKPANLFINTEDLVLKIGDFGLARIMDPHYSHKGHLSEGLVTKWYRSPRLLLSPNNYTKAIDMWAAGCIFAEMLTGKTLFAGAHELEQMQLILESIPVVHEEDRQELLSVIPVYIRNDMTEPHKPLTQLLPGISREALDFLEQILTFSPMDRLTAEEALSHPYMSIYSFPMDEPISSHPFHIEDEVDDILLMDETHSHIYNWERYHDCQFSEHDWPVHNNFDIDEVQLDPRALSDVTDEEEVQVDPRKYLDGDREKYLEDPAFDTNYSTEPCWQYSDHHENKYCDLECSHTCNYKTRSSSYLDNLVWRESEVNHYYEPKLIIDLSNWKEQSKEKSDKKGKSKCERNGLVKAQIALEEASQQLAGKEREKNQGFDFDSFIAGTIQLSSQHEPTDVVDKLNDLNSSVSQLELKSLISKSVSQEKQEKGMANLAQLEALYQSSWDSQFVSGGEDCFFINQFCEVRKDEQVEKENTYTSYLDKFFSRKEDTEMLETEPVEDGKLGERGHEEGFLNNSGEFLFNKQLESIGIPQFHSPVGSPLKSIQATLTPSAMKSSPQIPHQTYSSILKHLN

[1] = target: T7, JAK2(JH1domain-catalytic) (Homo sapiens, UniProt O60674)
T7 construct: JAK2(JH1domain-catalytic); purchased Eurofins DiscoverX KINOMEscan
T7 sequence (O60674 849-1132 limits assumed): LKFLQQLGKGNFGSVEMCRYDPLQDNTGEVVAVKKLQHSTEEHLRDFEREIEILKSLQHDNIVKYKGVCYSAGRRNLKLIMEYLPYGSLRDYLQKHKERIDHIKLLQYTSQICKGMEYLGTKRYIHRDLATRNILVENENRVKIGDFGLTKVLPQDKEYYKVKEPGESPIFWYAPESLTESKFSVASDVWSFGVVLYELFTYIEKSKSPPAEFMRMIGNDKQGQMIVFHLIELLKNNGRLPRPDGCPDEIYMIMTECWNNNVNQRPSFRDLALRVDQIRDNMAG

KIT(V559D) = target: T8, KIT(V559D) (Homo sapiens, UniProt P10721, V559D)
T8 construct: purchased Eurofins DiscoverX KINOMEscan
T8 sequence (P10721 26-976 V559D): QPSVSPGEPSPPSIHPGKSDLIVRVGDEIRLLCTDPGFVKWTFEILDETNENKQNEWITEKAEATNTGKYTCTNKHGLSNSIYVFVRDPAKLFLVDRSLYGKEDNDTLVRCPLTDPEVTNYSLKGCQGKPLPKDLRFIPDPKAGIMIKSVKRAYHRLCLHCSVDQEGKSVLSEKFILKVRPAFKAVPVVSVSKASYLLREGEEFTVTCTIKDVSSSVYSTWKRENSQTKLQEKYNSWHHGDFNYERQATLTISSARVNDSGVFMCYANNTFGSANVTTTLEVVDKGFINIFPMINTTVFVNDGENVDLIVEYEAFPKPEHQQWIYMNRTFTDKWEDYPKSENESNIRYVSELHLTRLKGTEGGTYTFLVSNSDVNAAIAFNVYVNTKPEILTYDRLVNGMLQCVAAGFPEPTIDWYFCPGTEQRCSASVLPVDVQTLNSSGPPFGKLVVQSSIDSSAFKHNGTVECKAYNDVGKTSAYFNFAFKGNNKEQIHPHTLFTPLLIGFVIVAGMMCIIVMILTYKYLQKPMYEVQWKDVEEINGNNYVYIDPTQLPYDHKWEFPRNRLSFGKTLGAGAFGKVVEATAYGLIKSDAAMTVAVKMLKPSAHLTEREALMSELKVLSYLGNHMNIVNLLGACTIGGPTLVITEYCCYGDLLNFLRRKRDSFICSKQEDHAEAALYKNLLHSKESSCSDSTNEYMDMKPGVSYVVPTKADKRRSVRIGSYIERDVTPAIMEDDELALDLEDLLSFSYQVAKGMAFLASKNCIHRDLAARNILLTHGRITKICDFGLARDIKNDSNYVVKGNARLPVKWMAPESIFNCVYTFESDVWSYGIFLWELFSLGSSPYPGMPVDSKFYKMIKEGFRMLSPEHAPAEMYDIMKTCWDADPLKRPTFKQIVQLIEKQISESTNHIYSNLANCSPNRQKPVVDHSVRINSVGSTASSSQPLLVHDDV

MST1 = target: T9, MST1 (Homo sapiens, UniProt Q13043)
T9 construct: purchased Eurofins DiscoverX KINOMEscan
T9 sequence (Q13043 1-487): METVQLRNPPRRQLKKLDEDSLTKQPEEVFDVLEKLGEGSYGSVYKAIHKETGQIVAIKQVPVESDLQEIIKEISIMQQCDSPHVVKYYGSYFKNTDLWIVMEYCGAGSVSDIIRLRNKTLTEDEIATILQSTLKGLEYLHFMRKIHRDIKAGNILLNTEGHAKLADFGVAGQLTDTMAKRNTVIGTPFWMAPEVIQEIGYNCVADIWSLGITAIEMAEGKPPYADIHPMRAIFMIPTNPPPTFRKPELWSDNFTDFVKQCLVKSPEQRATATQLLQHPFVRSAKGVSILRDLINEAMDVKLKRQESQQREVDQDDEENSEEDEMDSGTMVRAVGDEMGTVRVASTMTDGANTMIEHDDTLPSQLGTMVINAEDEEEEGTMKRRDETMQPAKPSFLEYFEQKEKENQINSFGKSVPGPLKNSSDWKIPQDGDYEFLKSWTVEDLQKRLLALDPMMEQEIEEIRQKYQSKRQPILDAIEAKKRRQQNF

PIM2 = target: T10, PIM2 (Homo sapiens, UniProt Q9P1W9)
T10 construct: purchased Eurofins DiscoverX KINOMEscan

PIM3 = target: T11, PIM3 (Homo sapiens, UniProt Q86V86)
T11 construct: purchased Eurofins DiscoverX KINOMEscan

[2] = target: T12, RSK3(Kin.Dom.1-N-terminal) (Homo sapiens, UniProt Q15349)
T12 construct: RSK3(Kin.Dom.1-N-terminal); purchased Eurofins DiscoverX KINOMEscan
T12 sequence (Q15349 59-318 limits assumed): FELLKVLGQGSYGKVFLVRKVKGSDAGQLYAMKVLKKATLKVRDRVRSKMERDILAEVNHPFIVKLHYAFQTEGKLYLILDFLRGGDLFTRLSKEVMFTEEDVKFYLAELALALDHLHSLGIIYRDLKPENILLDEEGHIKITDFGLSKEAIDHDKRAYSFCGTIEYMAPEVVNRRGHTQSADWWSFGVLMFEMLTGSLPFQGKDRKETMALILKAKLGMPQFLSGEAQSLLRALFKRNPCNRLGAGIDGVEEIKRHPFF

TAOK3 = target: T13, TAOK3 (Homo sapiens, UniProt Q9H2K8)
T13 construct: purchased Eurofins DiscoverX KINOMEscan
T13 sequence (Q9H2K8 1-898): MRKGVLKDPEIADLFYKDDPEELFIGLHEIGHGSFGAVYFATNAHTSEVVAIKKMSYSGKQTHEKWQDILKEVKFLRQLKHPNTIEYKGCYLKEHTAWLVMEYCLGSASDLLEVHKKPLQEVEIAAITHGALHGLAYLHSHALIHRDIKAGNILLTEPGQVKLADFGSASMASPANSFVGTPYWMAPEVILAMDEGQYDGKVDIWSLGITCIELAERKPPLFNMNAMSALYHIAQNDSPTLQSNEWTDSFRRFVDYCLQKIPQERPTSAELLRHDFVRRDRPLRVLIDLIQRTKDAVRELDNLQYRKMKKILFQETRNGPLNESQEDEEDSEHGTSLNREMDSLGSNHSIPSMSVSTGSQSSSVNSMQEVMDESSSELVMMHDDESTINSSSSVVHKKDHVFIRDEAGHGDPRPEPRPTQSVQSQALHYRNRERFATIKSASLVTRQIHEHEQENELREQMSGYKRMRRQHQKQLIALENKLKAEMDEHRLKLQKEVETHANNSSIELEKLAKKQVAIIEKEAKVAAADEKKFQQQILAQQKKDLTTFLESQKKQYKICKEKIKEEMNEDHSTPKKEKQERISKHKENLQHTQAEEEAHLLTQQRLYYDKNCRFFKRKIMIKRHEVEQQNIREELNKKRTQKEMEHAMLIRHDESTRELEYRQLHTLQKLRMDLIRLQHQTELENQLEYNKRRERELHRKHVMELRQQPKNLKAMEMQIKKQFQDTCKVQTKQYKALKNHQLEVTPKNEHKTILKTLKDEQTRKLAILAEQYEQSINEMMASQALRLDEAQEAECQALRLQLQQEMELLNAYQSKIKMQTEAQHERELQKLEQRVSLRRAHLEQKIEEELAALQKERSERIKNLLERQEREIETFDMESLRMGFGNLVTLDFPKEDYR

T2 sequence (P49336 whole entry): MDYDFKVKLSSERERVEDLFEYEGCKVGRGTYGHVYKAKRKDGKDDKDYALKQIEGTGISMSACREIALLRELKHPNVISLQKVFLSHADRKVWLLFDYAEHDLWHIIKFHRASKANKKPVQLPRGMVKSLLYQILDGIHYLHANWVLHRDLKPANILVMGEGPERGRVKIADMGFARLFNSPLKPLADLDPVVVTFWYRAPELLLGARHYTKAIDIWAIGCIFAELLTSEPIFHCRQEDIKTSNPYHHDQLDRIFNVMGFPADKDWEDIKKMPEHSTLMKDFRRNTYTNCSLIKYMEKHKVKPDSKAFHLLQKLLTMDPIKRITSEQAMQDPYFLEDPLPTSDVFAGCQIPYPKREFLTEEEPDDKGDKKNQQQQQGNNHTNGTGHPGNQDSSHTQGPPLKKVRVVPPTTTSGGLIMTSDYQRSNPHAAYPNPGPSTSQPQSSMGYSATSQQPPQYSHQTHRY

Row | Compound | remaining binding at 1 µM (CAMK1) | remaining binding at 1 µM (CDK8) | remaining binding at 1 µM (CIT) | remaining binding at 1 µM (DRAK1) | remaining binding at 1 µM (EGFR(T790M)) | remaining binding at 1 µM (ERK3) | remaining binding at 1 µM [1] | remaining binding at 1 µM (KIT(V559D)) | remaining binding at 1 µM (MST1) | remaining binding at 1 µM (PIM2) | remaining binding at 1 µM (PIM3) | remaining binding at 1 µM [2] | remaining binding at 1 µM (TAOK3)
1 | CN1CCC(CNc2cc(Cl)nn3c(-c4cc5nc(Nc6ccccc6)[nH]c5cc4F)cnc23)CC1 [compound 31, 6-Chloro-3-(6-fluoro-2-(phenylamino)-1H-benzo[d]imidazol-5-yl)-N-((1-methylpiperidin-4-yl)methyl)imidazo[1,2-b]pyridazin-8-amine] | 84% | 70% | 85% | 91% | 100% | 94% | 100% | 67% | 95% | 100% | 92% | 78% | 77%
2 | O=C(CN1CCOCC1)N[C@H]1CC[C@H](Nc2cc(Cl)nn3c(-c4ccc5[nH]ncc5c4)cnc23)CC1 [compound 26] | 77% | 97% | 74% | 20% | 100% | 68% | 99% | 0.05% | 100% | 100% | 71% | 52% | 91%
3 | Clc1cc(NCC2CC2)c2ncc(-c3ccc4[nH]ncc4c3)n2n1 [compound 2, 6-Chloro-N-(cyclopropylmethyl)-3-(1H-indazol-5-yl)imidazo[1,2-b]pyridazin-8-amine] | 100% | 82% | 73% | 18% | 92% | 96% | 91% | 0.45% | 100% | 100% | 95% | 82% | 92%
